Measured values as given in PMC2194712, “Structure of Arabidopsis thaliana 5-methylthioribose kinase reveals a more occluded active site than its bacterial homolog” (BMC Structural Biology, 2007).

Legend:
A. thaliana MTR kinase = target: T1, A. thaliana MTR kinase (Arabidopsis thaliana, UniProt Q9C6D2); assay: X-ray crystallography, […] Å, co-crystallization; format: binding; settings: crystal soaked at pH 6.5
T1 construct: gene MTK; full length, 420 residues; homodimer
T1 sequence (Q9C6D2 1-420): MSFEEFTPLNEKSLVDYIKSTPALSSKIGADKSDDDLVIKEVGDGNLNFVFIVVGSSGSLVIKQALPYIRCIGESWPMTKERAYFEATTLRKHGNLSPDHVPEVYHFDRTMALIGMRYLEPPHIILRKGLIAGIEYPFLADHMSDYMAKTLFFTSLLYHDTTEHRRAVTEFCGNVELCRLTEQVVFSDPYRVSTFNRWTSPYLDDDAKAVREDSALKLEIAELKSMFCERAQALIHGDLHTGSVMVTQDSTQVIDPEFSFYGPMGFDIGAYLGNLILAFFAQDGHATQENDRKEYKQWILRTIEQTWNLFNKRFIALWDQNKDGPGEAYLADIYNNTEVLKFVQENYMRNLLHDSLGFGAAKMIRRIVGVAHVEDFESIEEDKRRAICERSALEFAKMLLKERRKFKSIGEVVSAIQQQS

[1] = target: the molecule itself; assay: SEC; size exclusion chromatography of A. thaliana MTR kinase, data not shown; conditions not given

Nc1ncnc2c1ncn2[C@@H]1O[C@H](COP(=O)(O)OP(=O)(O)O)[C@@H](O)[C@H]1O [ADP]
X-ray crystallography, 1.9 Å, co-crystallization (A. thaliana MTR kinase; nucleotide site, from ATPγS hydrolysed during co-crystallization, two Mg(II), MTR bound): coordinates of the A. thaliana MTR kinase in complex with ADP and MTR

CSC[C@H]1OC(O)[C@H](O)[C@@H]1O (stereo partly drawn) [MTR]
X-ray crystallography, 1.9 Å, co-crystallization (A. thaliana MTR kinase; active site, co-crystallized with ATPγS and MTR, Mg(II) and ADP bound, alpha anomer): coordinates of the A. thaliana MTR kinase in complex with ADP and MTR

B1: Arabidopsis thaliana 5-methylthioribose kinase (enzyme, UniProt Q9C6D2 1-420, looked up)
chain: T1 sequence (Q9C6D2 1-420)
notes: 5-methylthioribose (MTR) kinase of Arabidopsis thaliana, 420 residues; residues 1 and 420 are named as part of the crystallised protein (not modelled); also called A. thaliana MTR kinase; MTR kinase
stoichiometry N [1]: 2
